Measurements published in ChEMBL document CHEMBL3872286, “Identification and Mechanistic Evaluation of Hemozoin-Inhibiting Triarylimidazoles Active against Plasmodium falciparum” (ACS Med Chem Lett, 2017).
Activity calls are given as the source filed them. No cut-off for these calls is given here.

How the values were obtained:
[1] = Selectivity index, ratio of cytotoxic activity against CHO cells to IC50 for Plasmodium falciparum infected in human type O+ erythrocytes; assay type: toxicity, cell-based; settings: hamster, read-out: Selectivity Index
Plasmodium falciparum [2] = test: Antimalarial activity against chloroquine-sensitive Plasmodium falciparum D6 infected in human erythrocytes assessed as inhibition of beta-hematin formation by measuring increase in intracellular free heme level; assay type: functional, cell-based
[3] = Cytotoxicity against CHO cells assessed as decrease in cell viability by MTT assay; assay type: toxicity, cell-based, Cricetulus griseus; settings: chinese hamster
[4] = Inhibition of beta-hematin formation incubated for 5 to 6 hrs by NP40 detergent-mediated assay
Plasmodium falciparum [5] = test: Antimalarial activity against chloroquine-sensitive asexual erythrocyte stage of Plasmodium falciparum NF54 infected in human type O+ erythrocytes assessed as growth inhibition incubated for 48 hrs by NBT dye based LDH release assay; assay type: functional, cell-based; settings: NF54, 48 h
Plasmodium falciparum [6] = test: Inhibition of beta-hematin formation in human erythrocytes infected with chloroquine-sensitive Plasmodium falciparum D6 assessed as increase in intracellular free heme level by SYBR Green I fluorescence assay; design: scale not given: the % may be the effect or the level left
Plasmodium falciparum [7] = test: Antimalarial activity against chloroquine-sensitive asexual erythrocyte stage of Plasmodium falciparum D6 infected in human type O+ erythrocytes assessed as growth inhibition incubated for 48 hrs by NBT dye based LDH release assay; assay type: functional, cell-based; settings: D6, 48 h
Plasmodium falciparum [8] = test: Antimalarial activity against chloroquine-sensitive Plasmodium falciparum D6 infected in human erythrocytes assessed as inhibition of beta-hematin formation by measuring increase in intracellular free heme level at 2.5 times IC50; assay type: functional, cell-based; design: scale not given: the % may be the effect or the level left
Plasmodium falciparum [9] = test: Antimalarial activity against chloroquine-resistant asexual erythrocyte stage of Plasmodium falciparum K1 infected in human type O+ erythrocytes assessed as growth inhibition incubated for 48 hrs by NBT dye based LDH release assay; assay type: functional, cell-based; settings: K1, 48 h
[10] = Resistance index, ratio of IC50 for chloroquine-resistant asexual erythrocyte stage of Plasmodium falciparum K1 infected in human type O+ erythrocytes to IC50 for chloroquine-sensitive asexual erythrocyte stage of Plasmodium falciparum NF54 infected in human type O+ erythrocytes; assay type: functional
Plasmodium falciparum [11] = test: Antimalarial activity against chloroquine-resistant asexual erythrocyte stage of Plasmodium falciparum K1 infected in human type O+ erythrocytes assessed as growth inhibition incubated for 72 hrs by NBT dye based LDH release assay; assay type: functional, cell-based; settings: K1, 72 h
Plasmodium falciparum [12] = test: Antimalarial activity against chloroquine-sensitive asexual erythrocyte stage of Plasmodium falciparum NF54 infected in human type O+ erythrocytes assessed as decrease in DNA level by flow cytometry; assay type: functional, cell-based
Plasmodium falciparum [13] = test: Antimalarial activity against chloroquine-sensitive asexual erythrocyte stage of Plasmodium falciparum NF54 infected in human type O+ erythrocytes assessed as pyknosis at 3 times IC50 by light microscopy; assay type: functional, cell-based
Plasmodium falciparum [14] = test: Antimalarial activity against chloroquine-sensitive asexual erythrocyte stage of Plasmodium falciparum NF54 infected in human type O+ erythrocytes assessed as smaller and less complex DNA by flow cytometry; assay type: functional, cell-based

| Structure (SMILES) | IC50 [4] | IC50 (Plasmodium falciparum [5]) | IC50 (Plasmodium falciparum [7]) | other results |
| --- | --- | --- | --- | --- |
| O=[N+]([O-])c1ccc(-c2nc(-c3ccccc3)c(-c3ccccc3)[nH]2)cc1 | 19 µM | 15 µM | – | selectivity ratio [1]: 7.8; Activity (Plasmodium falciparum [2]): > 20 fg; Activity [3]: 149 µM |
| c1ccc(-c2nc(-c3ccccc3)c(-c3ccccc3)[nH]2)cc1 | > 1000 µM | – | > 20 µM | – |
| Oc1ccc(-c2nc(-c3ccccc3)c(-c3ccccc3)[nH]2)cc1 | 17.7 µM | > 32 µM | – | – |
| c1ccc(-c2ncc[nH]2)cc1 [2-PHENYLIMIDAZOLE] | > 1000 µM | – | – | – |
| COc1ccc(-c2nc(-c3cc(OC)cc(OC)c3)[nH]c2-c2ccc(OC)cc2)cc1 | 13.8 µM | 1.7 µM | – | Activity (Plasmodium falciparum [8]): > 50%; selectivity ratio [1]: > 141; Activity (Plasmodium falciparum [2]): Dose dependent effect; Activity [3]: > 240 µM; IC50 (Plasmodium falciparum [9]): 1.8 µM; Ratio IC50 [10]: 1.1 |
| COc1cc(-c2nc(-c3ccccc3)c(-c3ccccc3)[nH]2)cc(OC)c1O | 10.2 µM | 1.3 µM | – | IC50 (Plasmodium falciparum [9]): 1.9 µM; Ratio IC50 [10]: 1.5 |
| CCOc1cc(-c2nc(-c3ccc(F)cc3)c(-c3ccc(F)cc3)[nH]2)ccc1O | 18.7 µM | – | 2.4 µM | – |
| COc1cc(OC)cc(-c2nc(-c3ccccc3)c(-c3ccccc3)[nH]2)c1 | 14.6 µM | 7 µM | – | Activity (Plasmodium falciparum [8]): > 50%; selectivity ratio [1]: > 206; Activity (Plasmodium falciparum [2]): Dose dependent effect; IC50 (Plasmodium falciparum [11]): 4.7 µM; Activity [3]: > 269 µM; Ratio IC50 [10]: 0.7 |
| FC(F)(F)Oc1ccc(-c2nc(-c3ccccc3)c(-c3ccccc3)[nH]2)cc1 | > 1000 µM | 4.2 µM | – | Activity (Plasmodium falciparum [12]): Active; Activity (Plasmodium falciparum [13]): Active; selectivity ratio [1]: 6.9; Activity (Plasmodium falciparum [14]): Active; Activity [3]: 29 µM |
| c1ccc(-c2nc(-c3ccncc3)[nH]c2-c2ccccc2)cc1 | 25.4 µM | – | 10.8 µM | – |
| CCN(CC)CCCC(C)Nc1ccnc2cc(Cl)ccc12 (stereo not given) [CHLOROQUINE] | 315 µM | – | – | – |
| Oc1ccc(-c2ncc[nH]2)cc1 | 347 µM | > 20 µM | – | – |
| COc1cc(OC)cc(-c2nc(-c3ccccc3)c(-c3ccc(Cl)cc3)[nH]2)c1 | 16.6 µM | 1.7 µM | – | IC50 (Plasmodium falciparum [9]): 2.7 µM; Ratio IC50 [10]: 1.6 |

More lines, in order of falling IC50 [4], values ahead:

| IC50 [4] | Structure (SMILES) | IC50 (Plasmodium falciparum [5]) | IC50 (Plasmodium falciparum [7]) | other results |
| --- | --- | --- | --- | --- |
| 16.1 µM | Nc1ccc(-c2nc(-c3ccccc3)c(-c3ccccc3)[nH]2)cc1 | 42 µM | – | – |
| 12.7 µM | Brc1ccc2[nH]cc(-c3nc(-c4ccccc4)c(-c4ccccc4)[nH]3)c2c1 | – | 2.24 µM | – |
| 12.6 µM | COc1cc(-c2nc(-c3ccccc3)c(-c3ccc(Br)cc3)[nH]2)cc(OC)c1O | – | 0.31 µM | – |
| 10.9 µM | COc1cc(-c2nc(-c3ccccc3)c(-c3ccccc3)[nH]2)cc(OC)c1OC | 3 µM | – | – |
| 10 µM | COc1cc(OC)c(-c2nc(-c3ccsc3)c(-c3ccccc3)[nH]2)cc1OC | – | 11.7 µM | – |
| 6.2 µM | COc1cc(-c2nc(-c3ccc4c(c3)S(=O)(=O)c3ccccc3-4)c(-c3ccccc3)[nH]2)cc(OC)c1O | – | 0.61 µM | – |
| 5.6 µM | Oc1ccc(-c2nc(-c3ccccc3)c(-c3ccc(Br)cc3)[nH]2)cc1 | – | 9.06 µM | Activity (Plasmodium falciparum [6]): 43% |
| 2.4 µM | COc1cc(-c2nc(-c3ccccc3)c(-c3ccc(O)cc3)[nH]2)cc(OC)c1O | – | 0.7 µM | – |
